Measurements from patent publication US6723726B1 (SmithKline Beecham Corporation, priority 1996, dated 2004).
pIC50: −log10 of the molar value. Structures can show the parent of a compound that is named as a salt. Where two headings read alike, the source gives them in different places.

Assays:
[1] = target: T1, c-erbB-2 (baculovirus expressed recombinant intracellular domain) (Homo sapiens, UniProt P04626); assay: Substrate phosphorylation assay, c-erbB-2; type: biochemical; conditions: ATP and peptide at Km, 30 min, room temperature
T1 construct: baculovirus expressed, recombinant constructs of the intracellular domains of c-erbB-2 and c-erbB-4 that are constitutively active; made in house
Procedure: (§1) The substrate phosphorylation assays use baculovirus expressed, recombinant constructs of the intracellular domains of c-erbB-2 and c-erbB-4 that are constitutively active and EGFr isolated from solubilised A431 cell membranes. The method measures the ability of the isolated enzymes to catalyse the transfer of the γ-phosphate from ATP onto tyrosine residues in a biotinylated synthetic peptide (Biotin-[…]. […] The reaction is stopped by the addition of EDTA (final concentration 0.15 mM) and a sample is transferred to a streptavidin-coated 96-well plate. The plate is washed and level of phosphotyrosine on the peptide is determined using a Europium-labelled antiphosphotyrosine antibody and quantified with a time-resolved fluorescence technique.

[2] = target: T2, c-erbB-4 (baculovirus expressed recombinant intracellular domain) (Homo sapiens, UniProt Q15303); assay: Substrate phosphorylation assay, c-erbB-4; type: biochemical; conditions: ATP and peptide at Km, 30 min, room temperature
T2 construct: baculovirus expressed, recombinant constructs of the intracellular domains of c-erbB-2 and c-erbB-4 that are constitutively active; made in house
Procedure: as §1

HB4a erbB-2 cells = assay: Cell proliferation assay, HB4a transformed by over-expression of c-erbB-2; type: cell-based, human; conditions: 4 days, methylene blue staining, read-out: Cell Proliferation HB4a erbB-2 IC50
Procedure: (§2) The cell proliferation assay uses an immortalised human breast epithelial cell line (HB4a) which has been transformed by over-expression of c-erbB-2. Growth of these cells in low serum is dependent upon the c-erbB-2 tyrosine kinase activity. The specificity of the effect of the test compounds on tyrosine kinase dependent growth over general toxicity is assessed by comparison to an HB4a cell line which has been transfected with ras. Cells are plated at 3000/well in 96-well plates in 0.1 ml medium and allowed to attach overnight, test compound is added in 0.1 ml medium, with a final concentration of 0.5% DMSO, and the plates incubated for 4 days at 37° C. The cells are then examined microscopically for evidence of morphological detransformation and cell mass is estimated by staining with methylene blue and measuring the absorbance at 620 nm. The results are shown in Table 1 below as the IC50 values in nM. Activity against a range of naturally occurring EGFr or c-erbB-2 over-expressing human tumour cell lines (BT474-breast, HN5-head and neck, N87-gastric and Calu3-lung) is assessed with selected compounds by the same methodology. The results are also shown in Table 1 below as the IC50 values in nM.

HB4a ras cells = assay: Cell proliferation assay, HB4a transfected with ras (general toxicity comparison); type: cell-based, human; conditions: 4 days, methylene blue staining, read-out: Cell Proliferation HB4a ras IC50
Procedure: as §2

BT474 cells = assay: Cell proliferation assay, BT474 breast tumour cell line; type: cell-based, human; conditions: 4 days, methylene blue staining, read-out: Cell Proliferation BT474 IC50
Procedure: as §2

Calu3 cells = assay: Cell proliferation assay, Calu3 lung tumour cell line; type: cell-based, human; conditions: 4 days, methylene blue staining, read-out: Cell Proliferation Calu3 IC50
Procedure: as §2

[3] = target: T3, EGFr isolated from solubilised A431 cell membranes (Homo sapiens, UniProt P00533); assay: Substrate phosphorylation assay, EGFr; type: biochemical; conditions: ATP and peptide at Km, 30 min, room temperature
T3 construct: EGFr isolated from solubilised A431 cell membranes; endogenous in cells; host or cells: A431 cell membranes (solubilised)
Procedure: as §1

N87 cells = assay: Cell proliferation assay, N87 gastric tumour cell line; type: cell-based, human; conditions: 4 days, methylene blue staining, read-out: Cell Proliferation N87 IC50
Procedure: as §2

HN5 cells = assay: Cell proliferation assay, HN5 head and neck tumour cell line; type: cell-based; conditions: Homo sapiens, HN5, 96 h; 4 days, methylene blue staining; read-out: Cell Proliferation HN5 IC50
Procedure: as §2

T1 sequence (P04626 676-1255 limits assumed): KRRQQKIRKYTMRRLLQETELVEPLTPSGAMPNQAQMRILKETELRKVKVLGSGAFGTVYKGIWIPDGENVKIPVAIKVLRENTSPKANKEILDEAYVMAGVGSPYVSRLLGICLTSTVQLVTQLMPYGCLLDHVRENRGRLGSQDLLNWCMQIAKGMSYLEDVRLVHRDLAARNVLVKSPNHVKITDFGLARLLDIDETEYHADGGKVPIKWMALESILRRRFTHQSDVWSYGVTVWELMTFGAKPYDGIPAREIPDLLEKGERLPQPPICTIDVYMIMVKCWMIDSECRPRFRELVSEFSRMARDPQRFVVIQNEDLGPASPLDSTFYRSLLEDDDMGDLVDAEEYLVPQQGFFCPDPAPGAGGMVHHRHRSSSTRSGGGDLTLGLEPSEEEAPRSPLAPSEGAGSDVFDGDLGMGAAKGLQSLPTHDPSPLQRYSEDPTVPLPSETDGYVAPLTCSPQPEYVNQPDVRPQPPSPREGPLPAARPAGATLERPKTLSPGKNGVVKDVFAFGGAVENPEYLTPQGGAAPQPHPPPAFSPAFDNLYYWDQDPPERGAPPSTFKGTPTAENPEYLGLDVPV
T2 sequence (Q15303 676-1308 limits assumed): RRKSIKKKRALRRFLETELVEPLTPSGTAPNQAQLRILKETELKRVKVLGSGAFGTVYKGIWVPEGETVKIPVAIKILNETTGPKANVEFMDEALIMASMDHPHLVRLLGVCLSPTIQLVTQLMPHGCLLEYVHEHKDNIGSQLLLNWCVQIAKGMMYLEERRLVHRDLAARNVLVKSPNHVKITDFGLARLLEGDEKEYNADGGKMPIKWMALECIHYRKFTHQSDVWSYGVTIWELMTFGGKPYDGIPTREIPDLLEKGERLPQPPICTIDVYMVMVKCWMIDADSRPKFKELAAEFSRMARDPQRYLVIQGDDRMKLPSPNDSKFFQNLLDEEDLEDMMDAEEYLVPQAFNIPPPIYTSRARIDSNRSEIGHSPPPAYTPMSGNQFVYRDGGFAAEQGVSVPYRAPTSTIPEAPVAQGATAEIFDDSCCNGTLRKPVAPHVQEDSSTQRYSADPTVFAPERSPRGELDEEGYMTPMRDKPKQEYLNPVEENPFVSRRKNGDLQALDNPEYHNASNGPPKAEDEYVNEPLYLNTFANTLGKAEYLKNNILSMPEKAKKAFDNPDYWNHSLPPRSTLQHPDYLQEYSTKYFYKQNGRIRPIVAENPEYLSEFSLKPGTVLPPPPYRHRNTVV
T3 sequence (P00533 25-1210): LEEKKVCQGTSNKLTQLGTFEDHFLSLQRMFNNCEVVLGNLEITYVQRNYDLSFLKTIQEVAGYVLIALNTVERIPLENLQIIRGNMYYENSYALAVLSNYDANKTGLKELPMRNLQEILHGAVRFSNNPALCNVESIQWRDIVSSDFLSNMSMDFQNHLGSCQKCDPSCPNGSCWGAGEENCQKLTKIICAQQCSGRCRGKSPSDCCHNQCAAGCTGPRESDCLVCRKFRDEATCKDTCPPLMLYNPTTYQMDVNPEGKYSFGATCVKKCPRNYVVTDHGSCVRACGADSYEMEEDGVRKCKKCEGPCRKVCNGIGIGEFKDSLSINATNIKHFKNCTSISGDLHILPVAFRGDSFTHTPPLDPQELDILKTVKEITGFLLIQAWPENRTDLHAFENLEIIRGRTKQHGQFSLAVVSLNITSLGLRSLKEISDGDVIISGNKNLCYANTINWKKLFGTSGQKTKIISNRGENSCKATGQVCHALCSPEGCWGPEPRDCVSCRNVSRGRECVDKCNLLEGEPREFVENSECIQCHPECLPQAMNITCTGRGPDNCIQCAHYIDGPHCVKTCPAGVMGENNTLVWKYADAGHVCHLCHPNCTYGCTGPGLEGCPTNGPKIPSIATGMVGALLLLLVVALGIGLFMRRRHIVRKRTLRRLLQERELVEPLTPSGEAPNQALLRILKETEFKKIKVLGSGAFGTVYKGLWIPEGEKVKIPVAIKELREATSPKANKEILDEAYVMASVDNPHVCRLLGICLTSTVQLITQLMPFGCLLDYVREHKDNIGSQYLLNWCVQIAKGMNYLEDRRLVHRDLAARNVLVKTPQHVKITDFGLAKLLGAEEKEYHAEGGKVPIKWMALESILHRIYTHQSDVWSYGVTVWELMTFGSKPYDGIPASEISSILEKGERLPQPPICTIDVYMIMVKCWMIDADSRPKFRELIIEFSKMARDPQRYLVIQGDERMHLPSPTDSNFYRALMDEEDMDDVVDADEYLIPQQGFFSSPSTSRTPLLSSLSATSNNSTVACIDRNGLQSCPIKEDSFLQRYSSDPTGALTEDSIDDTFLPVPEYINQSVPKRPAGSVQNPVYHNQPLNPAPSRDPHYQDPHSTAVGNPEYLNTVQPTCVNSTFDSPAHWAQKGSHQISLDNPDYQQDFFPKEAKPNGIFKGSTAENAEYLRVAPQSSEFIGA

Compound	pIC50 [1]	pIC50 [2]	pIC50 (BT474 cells; Homo sapiens, BT-474, 96 h)	pIC50 (Calu3 cells; Homo sapiens, Calu-3, 96 h)	pIC50 [3]	pIC50 (N87 cells; Homo sapiens, 96 h)	pIC50 (HN5 cells)	pIC50 (BT474 cells)	pIC50 (Calu3 cells)	pIC50 (N87 cells)	pIC50 (HB4a erbB-2 cells; Homo sapiens, HB4a, 96 h)	pIC50 (HB4a ras cells; Homo sapiens, HB4a, 96 h)	pIC50 (HB4a erbB-2 cells)	pIC50 (HB4a ras cells)
Cc1nnc(-c2cc3c(Nc4ccc5c(cnn5Cc5ccccc5)c4)ncnc3cn2)o1 [Example 29, (1-Benzyl-1H-indazol-5-yl)-(6-(5-methyl-1,3,4-oxadiazol-2-yl)-pyrido[3,4-d]pyrimidin-4-yl)-amine Hydrochloride]	8.70	5.26	4.96	–	8.70	5.00	–	–	–	–	5.28	4.54	–	–
CN1CCN(c2cc3c(Nc4ccc5c(cnn5Cc5ccccc5)c4)ncnc3cn2)CC1 [Example 32, (1-Benzyl-1H-indazol-5-yl)-(6-(4-methyl-piperazin-1-yl)-pyrido[3,4-d]pyrimidin-4-yl)-amine]	7.26	6.85	6.00	5.09	–	6.22	5.38	–	–	–	7.00	5.06	–	–
CN(C)c1cc2c(Nc3ccc4c(cnn4Cc4ccc(F)cc4)c3)ncnc2cn1 [Example 17, N4-(4-Fluoro-benzyl)-1H-indazol-5-yl)-N6,N6-dimethyl-pyrido[3,4-d]pyrimidine-4,6-diamine Hydrochloride]	6.60	–	–	–	–	–	–	6.26	5.15	–	–	–	6.31	5.12
c1ccc(Cn2ncc3cc(Nc4ncnc5cnc(N6CCCCC6)cc45)ccc32)cc1 [Example 25]	7.22	6.24	–	–	6.42	–	–	6.57	–	6.03	–	–	6.32	< 4.30

Continued by rising pIC50 [1], values first:

pIC50 [1]	pIC50 [2]	pIC50 (BT474 cells; Homo sapiens, BT-474, 96 h)	pIC50 (Calu3 cells; Homo sapiens, Calu-3, 96 h)	pIC50 [3]	pIC50 (N87 cells; Homo sapiens, 96 h)	pIC50 (HN5 cells)	pIC50 (BT474 cells)	pIC50 (Calu3 cells)	pIC50 (N87 cells)	Compound	pIC50 (HB4a erbB-2 cells; Homo sapiens, HB4a, 96 h)	pIC50 (HB4a ras cells; Homo sapiens, HB4a, 96 h)	pIC50 (HB4a erbB-2 cells)	pIC50 (HB4a ras cells)
7.82	6.64	8.70	5.89	–	6.72	6.72	–	–	–	CS(=O)(=O)CCNCc1ccc(-c2cc3c(Nc4ccc5c(cnn5Cc5ccccc5)c4)ncnc3cn2)o1 [Example 34, (1-Benzyl-1H-indazol-5-yl)-(6-(5-((2-methanesuphonyl-ethylamino)-methyl)-furan-2-yl)-pyrido-[3,4-d]pyrimidin-4-yl)-amine Hydrochloride]	7.15	4.77	–	–
8.05	7.02	9.00	6.74	–	6.92	7.09	–	–	–	CN(C)c1cc2c(Nc3ccc4c(cnn4Cc4cccc(F)c4)c3)ncnc2cn1 [Example 16, N4-(1-(3-Fluoro-benzyl)-1H-indazol-5-yl)-N6,N6-dimethyl-pyrido[3,4-d]pyrimidine-4.6-diamine Hydrochloride]	7.36	4.96	–	–
8.15	7.68	6.21	5.10	–	–	–	–	–	–	CN(C)c1cc2c(Nc3ccc4nc(Cc5ccccc5)[nH]c4c3)ncnc2cn1 [Example 7, N4-(2-Benzyl-1H-benzimidazol-5-yl)-N6,N6-dimethyl-pyrido[3,4-d]pyrimidine-4,6-diamine]	5.72	4.72	–	–
8.22	8.00	8.70	6.80	–	8.70	6.89	–	–	–	NC(=O)[C@@H]1CCCN1Cc1ccc(-c2cc3c(Nc4ccc5c(cnn5Cc5ccccc5)c4)ncnc3cn2)o1 [Example 10, (2S)1-(5-(4-(1-Benzyl-1H-indazol-5-ylamino)-6-pydrido[3,4-d]pyrimidin-6-yl)-furan-2-ylmethyl)-pyrrolidine-2-carboxylic Acid Amide Hydrochloride]	7.15	4.68	–	–
